Tested on: promastigotes of Leishmania donovani strain (MHOM/IN/90/GE1F8R)
Assay: alamarBlue activity against promastigotes of L. donovani
Type: cell-based
Settings: Leishmania donovani; 72 h of incubation; mean with standard deviation
Protocol: (§1) For the anti-leishmanicidal experiments, promastigotes and amastigotes of Leishmania amazonensis strain (MHOM/BR/77/LTB0016) and promastigotes of Leishmania donovani strain (MHOM/IN/90/GE1F8R) were used, and they were maintained in RPMI 1640 medium (Gibco, Waltham, MA, USA) at 26 °C. For the trypanocidal experiments, epimastigotes of Trypanosoma cruzi (Y strain) were used, and they were maintained in liver infusion tryptose (LIT) medium supplemented with 10% of fetal bovine serum (FBS) at 26 °C. Murine macrophages J774A.1 (ATCC #TIB-67), maintained in DMEM medium at 37 °C with 5% CO2, were used for the cytotoxic activity assays.
(§2) For the activity against extracellular parasites of kinetoplastid, Leishmania and Trypanosoma parasites, in a 96-well plate, serial dilutions of the compounds were added with dilutions of 10^5 parasites per well and a 10% of alamarBlue Cell Viability Reagent® (Thermo Fisher Scientific, Waltham, MA, USA). After 72 h of incubation at 26 °C, the fluorescence of each well was measured in the EnSpire Multimode Plate Reader® (PerkinElmer, Thermo Fisher Scientific, Madrid, Spain). The inhibitory concentration 50 (IC50) was calculated by nonlinear regression analysis.

First: C=C1C(=O)OC2C=C(C)CCC=C(COC(C)=O)CCC12 (mixture of isomers) [cis,trans-costunolide-14-acetate (3), cis,trans-costunolide-14-acetate]
Second: C=C1C(=O)O[C@@H]2/C=C(\C)[C@H](O)CC/C(C)=C/[C@H](OC(C)=O)[C@@H]12 [Tatridin A acetate (5), tatridin A acetate]
The IC50 of the first is lower: 5.41 ± 1.28 µM for the first, > 81.6 µM for the second.

First: C=C1CC[C@@H](O)[C@]2(C)CC[C@H]3C(=C)C(=O)O[C@@H]3[C@@H]12 [Reynosin (13), reynosin]
Second: C=C1C(=O)O[C@@H]2[C@H]3C(C)=CC[C@@H](O)[C@]3(C)CC[C@@H]12 [Santamarine (12), santamarine]
The IC50 of the first is higher: > 201 µM for the first, 12.1 ± 4.67 µM for the second.

In the case of `C=C1C[C@@H]2OC(=O)C(=C)[C@H]2[C@H](O)/C=C(\C)CCC1=O` [Tamirin (7), Tamirin], the IC50 is reported as 4.13 ± 1.25 µM.

Same assay, conditions: selectivity index CC50/IC50 (macrophages J744A.1 vs parasite)

Compared with `C=C1C(=O)OC2C=C(C)CCC=C(COC(C)=O)CCC12` (mixture of isomers) [cis,trans-costunolide-14-acetate (3), cis,trans-costunolide-14-acetate], `C=C1C[C@@H]2OC(=O)C(=C)[C@H]2[C@H](O)/C=C(\C)CCC1=O` [Tamirin (7), Tamirin] is lower in “Promastigotes L. donovani SI” value: 9.43 for the first, 5.65 for the second.

Compared with `CCCCCCCCCCCCCCCCOP(=O)([O-])OCC[N+](C)(C)C` [Miltefosine, reference compound], `C=C1C(=O)O[C@@H]2[C@H]3C(C)=CC[C@@H](O)[C@]3(C)CC[C@@H]12` [Santamarine (12), santamarine] is lower in “Promastigotes L. donovani SI” value: 21.74 for the first, 6.35 for the second.

For `C=C1CC[C@@H](O)[C@]2(C)CC[C@H]3C(=C)C(=O)O[C@@H]3[C@@H]12` [Reynosin (13), reynosin], the “Promastigotes L. donovani SI” value was <0.39.
For `C=C1C(=O)O[C@@H]2/C=C(\C)[C@H](O)CC/C(C)=C/[C@H](OC(C)=O)[C@@H]12` [Tatridin A acetate (5), tatridin A acetate], the “Promastigotes L. donovani SI” value was <0.24.

Tested on: promastigotes of Leishmania amazonensis strain (MHOM/BR/77/LTB0016)
Assay: alamarBlue activity against promastigotes of L. amazonensis
Type: cell-based
Settings: Leishmania amazonensis; 72 h of incubation; mean with standard deviation
Protocol: as §1, §2

Going from `C=C1C(=O)OC2C=C(C)CCC=C(COC(C)=O)CCC12` (mixture of isomers) [cis,trans-costunolide-14-acetate (3), cis,trans-costunolide-14-acetate] to `C=C1C(=O)O[C@@H]2/C=C(\C)[C@H](O)CC/C(C)=C/[C@H](OC(C)=O)[C@@H]12` [Tatridin A acetate (5), tatridin A acetate], the IC50 rises from 8.62 ± 1 µM to > 81.6 µM.

Going from `C=C1CC[C@@H](O)[C@]2(C)CC[C@H]3C(=C)C(=O)O[C@@H]3[C@@H]12` [Reynosin (13), reynosin] to `C=C1C(=O)O[C@@H]2[C@H]3C(C)=CC[C@@H](O)[C@]3(C)CC[C@@H]12` [Santamarine (12), santamarine], the IC50 rises from 40.2 ± 8.78 µM to > 101 µM.

Compound `C=C1C[C@@H]2OC(=O)C(=C)[C@H]2[C@H](O)/C=C(\C)CCC1=O` [Tamirin (7), Tamirin] has an IC50 of 11.7 ± 2.52 µM.

Same assay, conditions: selectivity index CC50/IC50

First: C=C1C(=O)OC2C=C(C)CCC=C(COC(C)=O)CCC12 (mixture of isomers) [cis,trans-costunolide-14-acetate (3), cis,trans-costunolide-14-acetate]
Second: C=C1C[C@@H]2OC(=O)C(=C)[C@H]2[C@H](O)/C=C(\C)CCC1=O [Tamirin (7), Tamirin]
The “Promastigotes L. amazonensis SI” value of the first is higher: 5.92 for the first, 1.99 for the second.

First: C=C1CC[C@@H](O)[C@]2(C)CC[C@H]3C(=C)C(=O)O[C@@H]3[C@@H]12 [Reynosin (13), reynosin]
Second: CCCCCCCCCCCCCCCCOP(=O)([O-])OCC[N+](C)(C)C [Miltefosine, reference compound]
The “Promastigotes L. amazonensis SI” value of the first is lower: 1.94 for the first, 11.14 for the second.

With `C=C1C(=O)O[C@@H]2/C=C(\C)[C@H](O)CC/C(C)=C/[C@H](OC(C)=O)[C@@H]12` [Tatridin A acetate (5), tatridin A acetate] the “Promastigotes L. amazonensis SI” value was <0.24.
With `C=C1C(=O)O[C@@H]2[C@H]3C(C)=CC[C@@H](O)[C@]3(C)CC[C@@H]12` [Santamarine (12), santamarine] the “Promastigotes L. amazonensis SI” value was <0.77.

Tested on: promastigotes of L. donovani
Assay: not given
Settings: not given

With `C=C1C(=O)OC2C=C(C)CCC=C(COC(C)=O)CCC12` (mixture of isomers) [cis,trans-costunolide-14-acetate (3), cis,trans-costunolide-14-acetate] the Plasmatic membrane permeability was “increase on the plasmatic membrane permeability”.

Tested on: T. cruzi
Assay: not given
Set-up: method as in PMID 17950283
Settings: read-out: IC50 against T. cruzi; cited from earlier work

For `C=C1C(=O)O[C@H]2[C@H]1CC/C(C)=C/CC[C@@]1(C)O[C@@H]21` [Parthenolide (15), parthenolide], the IC50 is listed as 2.01 µM.

Tested on: amastigotes of L. amazonensis
Assay: alamarBlue activity against intracellular amastigotes of L. amazonensis in murine macrophages
Type: cell-based, Leishmania amazonensis
Settings: Leishmania amazonensis, Macrophage; 24 h of incubation; intracellular form in murine macrophages
Protocol: as §1
To determinate the IC50 against the intracellular form of the parasite amastigotes of L. amazonensis, the alamarBlue colorimetric method was also used. In a 96-well plate, murine macrophages were added in a concentration of 10^4 cells per well. After adherence of the cells, 10^5 promastigotes of the parasite were added to reach 1:10 cell:parasites per well. After 24 h of incubation at 37 °C with 5% of CO2 for the internalization of the parasite, the wells were washed, and serial dilutions of the compounds were added. After an incubation of 24 h with the compounds, the wells were washed, and the macrophages were broken with a solution of SDS (Sodium dodecyl sulfate) at 0.05% for 30 s. After adding fresh RPMI medium, we added 10% of alamarBlue, and the plates were incubated at 26 °C for 96 h. Finally, the fluorescence was measured by using the EnSpire Multimode Plate Reader® (PerkinElmer, Thermo Fisher Scientific, Madrid, Spain), and the IC50 of each compound was calculated.

Work on `C=C1C(=O)OC2C=C(C)CCC=C(COC(C)=O)CCC12` (mixture of isomers) [cis,trans-costunolide-14-acetate (3), cis,trans-costunolide-14-acetate] yielded an IC50 of 24.6 ± 3.64 µM.

Same assay, conditions: selectivity index CC50/IC50

First: C=C1C(=O)OC2C=C(C)CCC=C(COC(C)=O)CCC12 (mixture of isomers) [cis,trans-costunolide-14-acetate (3), cis,trans-costunolide-14-acetate]
Second: CCCCCCCCCCCCCCCCOP(=O)([O-])OCC[N+](C)(C)C [Miltefosine, reference compound]
The “Amastigotes L. amazonensis SI” value of the first is lower: 2.08 for the first, 23.17 for the second.

Tested on: promastigotes of L. donovani
Assay: Chromatin condensation, Hoechst 33342/propidium iodide
Type: cell-based, Leishmania donovani
Settings: IC90, 24 h

For `C=C1C(=O)OC2C=C(C)CCC=C(COC(C)=O)CCC12` (mixture of isomers) [cis,trans-costunolide-14-acetate (3), cis,trans-costunolide-14-acetate], the Chromatin condensation was “blue and red fluorescence was produced”.

Tested on: not listed separately
Assay: alamarBlue cytotoxicity on murine macrophages
Type: cell-based
Settings: mouse, J774A.1 macrophages; 24 h of incubation; read-out: Macrophages J744A.1 CC50

First: O=C(Cn1ccnc1[N+](=O)[O-])NCc1ccccc1 [Benznidazole, reference compound]
Second: C=C1C(=O)OC2C=C(C)CCC=C(COC(C)=O)CCC12 (mixture of isomers) [cis,trans-costunolide-14-acetate (3), cis,trans-costunolide-14-acetate]
The CC50 at 24 h of the first is higher: > 1540 µM for the first, 51 ± 7.54 µM for the second.

`C=C1C(=O)O[C@@H]2/C=C(\C)[C@H](O)CC/C(C)=C/[C@H](OC(C)=O)[C@@H]12` [Tatridin A acetate (5), tatridin A acetate] and `C=C1C[C@@H]2OC(=O)C(=C)[C@H]2[C@H](O)/C=C(\C)CCC1=O` [Tamirin (7), Tamirin] are within 1.5-fold of each other in CC50 at 24 h: 19.3 ± 0.91 µM for the first, 23.3 ± 1.27 µM for the second.

Compound `CCCCCCCCCCCCCCCCOP(=O)([O-])OCC[N+](C)(C)C` [Miltefosine, reference compound] has a CC50 at 24 h of 72.2 ± 3.06 µM.

Tested on: epimastigotes of Trypanosoma cruzi (Y strain)
Assay: alamarBlue activity against epimastigotes of T. cruzi
Type: cell-based
Settings: Trypanosoma cruzi; 72 h of incubation; mean with standard deviation
Protocol: as §1, §2

First: C=C1C(=O)OC2C=C(C)CCC=C(COC(C)=O)CCC12 (mixture of isomers) [cis,trans-costunolide-14-acetate (3), cis,trans-costunolide-14-acetate]
Second: C=C1C(=O)O[C@@H]2/C=C(\C)[C@H](O)CC/C(C)=C/[C@H](OC(C)=O)[C@@H]12 [Tatridin A acetate (5), tatridin A acetate]
The IC50 of the first is lower: 8.88 ± 0.91 µM for the first, > 81.6 µM for the second.

First: C=C1CC[C@@H](O)[C@]2(C)CC[C@H]3C(=C)C(=O)O[C@@H]3[C@@H]12 [Reynosin (13), reynosin]
Second: C=C1C(=O)O[C@@H]2[C@H]3C(C)=CC[C@@H](O)[C@]3(C)CC[C@@H]12 [Santamarine (12), santamarine]
The IC50 of the first is 6-fold higher: 58.2 ± 13.1 µM for the first, 9.74 ± 2.68 µM for the second. The second is the more potent here.

For `C=C1C[C@@H]2OC(=O)C(=C)[C@H]2[C@H](O)/C=C(\C)CCC1=O` [Tamirin (7), Tamirin], the IC50 was > 69 µM.

Same assay, conditions: selectivity index CC50/IC50

Going from `C=C1C(=O)OC2C=C(C)CCC=C(COC(C)=O)CCC12` (mixture of isomers) [cis,trans-costunolide-14-acetate (3), cis,trans-costunolide-14-acetate] to `C=C1C(=O)O[C@@H]2[C@H]3C(C)=CC[C@@H](O)[C@]3(C)CC[C@@H]12` [Santamarine (12), santamarine], the “Epimastigotes T. cruzi SI” value rises from 5.75 to 7.91.

For `C=C1CC[C@@H](O)[C@]2(C)CC[C@H]3C(=C)C(=O)O[C@@H]3[C@@H]12` [Reynosin (13), reynosin], the “Epimastigotes T. cruzi SI” value was 1.34.

In the case of `C=C1C(=O)O[C@@H]2/C=C(\C)[C@H](O)CC/C(C)=C/[C@H](OC(C)=O)[C@@H]12` [Tatridin A acetate (5), tatridin A acetate], the “Epimastigotes T. cruzi SI” value is reported as <0.24.
For `C=C1C[C@@H]2OC(=O)C(=C)[C@H]2[C@H](O)/C=C(\C)CCC1=O` [Tamirin (7), Tamirin], the “Epimastigotes T. cruzi SI” value was <0.34.
